*1 amine or outer side, *2 acyl side, *3 side chain or, on linkers, in order; H or OH if unused. Where a SMILES comes first, the peptide text is derived from it. Side-chain parts run from the residue outwards. [ ]: non-standard residue; d: D form. The star is where a group is joined. C20 diacid = O=C(O)CCCCCCCCCCCCCCCCCCC(=O)*; C18 diacid = O=C(O)CCCCCCCCCCCCCCCCC(=O)*; αMePhe(2-F) = C[C@](N)(Cc1ccccc1F)C(=O)O; γGlu = O=C(O)[C@H](CCC(=O)[*:2])N[*:1]; 4Pal = N[C@@H](Cc1ccncc1)C(=O)O; αMeL = CC(C)C[C@](C)(N)C(=O)O; Orn = NCCC[C@H](N)C(=O)O; AEEA = NCCOCCOCC(=O)O; Aib = CC(C)(N)C(=O)O
Assays:
human GLP-1R = target: T1, human GLP-1R (Homo sapiens, UniProt P43220); experiment: [125I]-GLP-1 binding, SPA with WGA beads, 0.1% bacitracin; conditions: geometric mean, read-out: hGLP1R Ki
T1 construct: expressed in transfected cells; crude membranes
How it was run: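 Binding buffer was 25 mM HEPES pH 7.4 with 2.5 mM CaCl2, 1 mM MgCl2, 0.1% (w/v) bacitracin, 0.003% Tween-20 and EDTA-free protease inhibitors. Four-parameter regression gave IC50, converted to Ki (geometric mean, SEM, n independent days).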

human GIPR = target: T2, human GIPR (Homo sapiens, UniProt P48546); experiment: [125I]-GIP binding, SPA with WGA beads, 0.1% bacitracin; conditions: geometric mean, read-out: hGIPR Ki
T2 construct: expressed in transfected cells; crude membranes
T2 sequence (P48546 22-466): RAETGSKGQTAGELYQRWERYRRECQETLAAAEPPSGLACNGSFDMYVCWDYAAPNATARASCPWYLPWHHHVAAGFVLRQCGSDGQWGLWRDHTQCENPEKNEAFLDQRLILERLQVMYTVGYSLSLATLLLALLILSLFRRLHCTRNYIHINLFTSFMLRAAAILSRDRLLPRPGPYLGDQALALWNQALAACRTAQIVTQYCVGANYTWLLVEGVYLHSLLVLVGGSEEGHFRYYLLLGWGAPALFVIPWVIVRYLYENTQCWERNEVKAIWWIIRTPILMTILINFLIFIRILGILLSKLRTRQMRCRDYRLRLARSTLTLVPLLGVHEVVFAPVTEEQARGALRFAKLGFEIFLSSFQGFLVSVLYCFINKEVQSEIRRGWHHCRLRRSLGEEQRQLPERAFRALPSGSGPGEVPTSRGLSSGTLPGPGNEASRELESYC
How it was run: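 Ki values are geometric means (SEM, n independent days), derived from four-parameter nonlinear regression of IC50. Membranes came from hGIPR-expressing CHO cells.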

human GcgR = target: T3, human GcgR (Homo sapiens, UniProt P47871); experiment: [125I]-Glucagon binding, SPA with WGA beads, 0.1% bacitracin; conditions: geometric mean, read-out: hGcgR Ki
T3 construct: expressed in transfected cells; crude membranes
How it was run: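 SPA competition binding with WGA beads on crude membranes from HEK293 cells stably expressing hGcgR. Buffer: 25 mM HEPES pH 7.4, 2.5 mM CaCl2, 1 mM MgCl2, 0.1% bacitracin, 0.003% Tween-20; 10-point 3-fold dilutions, NSB with 1 μM Gcg.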

T3 sequence (P47871 26-477): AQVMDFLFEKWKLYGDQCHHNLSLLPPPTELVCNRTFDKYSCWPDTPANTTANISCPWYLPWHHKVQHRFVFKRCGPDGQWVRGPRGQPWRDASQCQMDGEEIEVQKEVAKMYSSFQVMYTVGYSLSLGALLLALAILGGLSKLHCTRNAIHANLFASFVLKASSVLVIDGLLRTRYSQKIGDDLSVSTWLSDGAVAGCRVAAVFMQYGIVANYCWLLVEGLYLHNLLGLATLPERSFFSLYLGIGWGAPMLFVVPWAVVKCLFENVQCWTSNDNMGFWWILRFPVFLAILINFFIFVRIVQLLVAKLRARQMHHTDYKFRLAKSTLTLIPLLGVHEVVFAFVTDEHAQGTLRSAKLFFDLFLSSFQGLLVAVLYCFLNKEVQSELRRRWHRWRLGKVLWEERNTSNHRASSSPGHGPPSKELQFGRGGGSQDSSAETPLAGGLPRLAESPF
T1 sequence (P43220 24-463): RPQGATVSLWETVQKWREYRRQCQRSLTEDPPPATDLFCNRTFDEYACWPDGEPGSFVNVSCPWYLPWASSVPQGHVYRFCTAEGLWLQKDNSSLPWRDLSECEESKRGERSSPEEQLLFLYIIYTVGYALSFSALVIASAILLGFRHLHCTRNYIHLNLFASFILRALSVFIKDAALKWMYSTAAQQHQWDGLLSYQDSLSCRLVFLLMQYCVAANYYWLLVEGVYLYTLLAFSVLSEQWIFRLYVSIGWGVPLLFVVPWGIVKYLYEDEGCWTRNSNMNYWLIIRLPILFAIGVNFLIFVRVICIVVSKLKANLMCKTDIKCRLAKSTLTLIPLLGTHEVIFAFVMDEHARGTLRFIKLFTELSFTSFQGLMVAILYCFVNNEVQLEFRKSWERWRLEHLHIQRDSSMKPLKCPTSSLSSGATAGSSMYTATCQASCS

For `CC[C@H](C)[C@H](NC(=O)[C@H](Cc1ccccc1)NC(=O)[C@@H](NC(=O)CNC(=O)[C@H](CCC(=O)O)NC(=O)C(C)(C)NC(=O)[C@@H](N)Cc1ccc(O)cc1)[C@@H](C)O)C(=O)N[C@@H](CO)C(=O)N[C@@H](CC(=O)O)C(=O)N[C@@H](Cc1ccc(O)cc1)C(=O)N[C@@H](CO)C(=O)N[C@H](C(=O)N[C@@](C)(CC(C)C)C(=O)N[C@@H](CC(C)C)C(=O)N[C@@H](CC(=O)O)C(=O)N[C@@H](CCCN)C(=O)N[C@@H](CCCCNC(=O)COCCOCCNC(=O)COCCOCCNC(=O)CC[C@H](NC(=O)CCCCCCCCCCCCCCCCCCC(=O)O)C(=O)O)C(=O)N[C@@H](Cc1c[nH]cn1)C(=O)N[C@@H](CCC(N)=O)C(=O)NC(C)(C)C(=O)N[C@@H](CC(=O)O)C(=O)N[C@@H](Cc1ccccc1)C(=O)N[C@H](C(=O)N[C@@H](CCC(=O)O)C(=O)N[C@@H](Cc1ccncc1)C(=O)N[C@@H](CC(C)C)C(=O)N[C@@H](CC(C)C)C(=O)N[C@@H](CCC(=O)O)C(=O)N[C@H](C(=O)NCC(=O)N1CCC[C@H]1C(=O)N[C@@H](CO)C(=O)N[C@@H](CO)C(=O)NCC(=O)N[C@@H](C)C(=O)N1CCC[C@H]1C(=O)N1CCC[C@H]1C(=O)N1CCC[C@H]1C(=O)N[C@@H](CO)C(N)=O)[C@@H](C)O)C(C)C)[C@@H](C)CC` [Example 80] (H-Y[Aib]EGTFISDYSI[αMeL]LD[Orn]K([AEEA-AEEA-γGlu-C20 diacid])HQ[Aib]DFVE[4Pal]LLETGPSSGAPPPS-NH2), the Ki (human GLP-1R) was > 906 nM, the Ki (human GIPR) was 0.0828 nM and the Ki (human GcgR) was > 958 nM.
With `CC[C@H](C)[C@H](NC(=O)[C@H](CO)NC(=O)[C@H](Cc1ccc(O)cc1)NC(=O)[C@H](CC(=O)O)NC(=O)[C@H](CO)NC(=O)[C@@H](NC(=O)[C@](C)(Cc1ccccc1F)NC(=O)[C@@H](NC(=O)CNC(=O)[C@H](CCC(=O)O)NC(=O)C(C)(C)NC(=O)[C@@H](N)Cc1ccc(O)cc1)[C@@H](C)O)[C@@H](C)CC)C(=O)N[C@@H](C)C(=O)N[C@@H](CC(C)C)C(=O)N[C@@H](CC(=O)O)C(=O)N[C@@H](CCCCN)C(=O)N[C@H](C(=O)N[C@@H](Cc1c[nH]cn1)C(=O)N[C@@H](CCC(N)=O)C(=O)NC(C)(C)C(=O)N[C@@H](CCC(=O)O)C(=O)N[C@@H](Cc1ccccc1)C(=O)N[C@H](C(=O)N[C@@H](CC(N)=O)C(=O)N[C@@H](Cc1ccc(O)cc1)C(=O)N[C@@H](CCCCNC(=O)COCCOCCNC(=O)COCCOCCNC(=O)CC[C@H](NC(=O)CCCCCCCCCCCCCCCCC(=O)O)C(=O)O)C(=O)N[C@@H](CC(C)C)C(=O)N[C@@H](C)C(=O)NCC(=O)NCC(=O)N1CCC[C@H]1C(=O)N[C@@H](CO)C(=O)N[C@@H](CO)C(=O)NCC(=O)N[C@@H](C)C(=O)N1CCC[C@H]1C(=O)N1CCC[C@H]1C(=O)N1CCC[C@H]1C(=O)N[C@@H](CO)C(N)=O)C(C)C)[C@@H](C)CC` [Example 94] (H-Y[Aib]EGT[αMePhe(2-F)]ISDYSIALDKIHQ[Aib]EFVNYK([AEEA-AEEA-γGlu-C18 diacid])LAGGPSSGAPPPS-NH2) the Ki (human GLP-1R) was > 909 nM, the Ki (human GIPR) was 0.031 nM and the Ki (human GcgR) was 114 nM.
With `CC[C@H](C)[C@H](NC(=O)[C@H](Cc1ccccc1)NC(=O)[C@@H](NC(=O)CNC(=O)[C@H](CCC(=O)O)NC(=O)C(C)(C)NC(=O)[C@@H](N)Cc1ccc(O)cc1)[C@@H](C)O)C(=O)N[C@@H](CO)C(=O)N[C@@H](CC(=O)O)C(=O)N[C@@H](Cc1ccc(O)cc1)C(=O)N[C@@H](CO)C(=O)N[C@H](C(=O)N[C@@](C)(CC(C)C)C(=O)N[C@@H](CC(C)C)C(=O)N[C@@H](CC(=O)O)C(=O)N[C@@H](CCC(=O)O)C(=O)N[C@@H](CCCCNC(=O)COCCOCCNC(=O)COCCOCCNC(=O)CC[C@H](NC(=O)CCCCCCCCCCCCCCCCCCC(=O)O)C(=O)O)C(=O)N[C@@H](Cc1c[nH]cn1)C(=O)N[C@@H](CCC(N)=O)C(=O)NC(C)(C)C(=O)N[C@@H](CC(=O)O)C(=O)N[C@@H](Cc1ccccc1)C(=O)N[C@H](C(=O)N[C@@H](CCC(=O)O)C(=O)N[C@@H](Cc1ccncc1)C(=O)N[C@@H](CC(C)C)C(=O)N[C@@H](CC(C)C)C(=O)N[C@@H](C)C(=O)N[C@@H](CCC(N)=O)C(=O)NCC(=O)N1CCC[C@H]1C(=O)N[C@@H](CO)C(=O)N[C@@H](CO)C(=O)NCC(=O)N[C@@H](C)C(=O)N1CCC[C@H]1C(=O)N1CCC[C@H]1C(=O)N1CCC[C@H]1C(=O)N[C@@H](CO)C(N)=O)C(C)C)[C@@H](C)CC` [Example 84] (H-Y[Aib]EGTFISDYSI[αMeL]LDEK([AEEA-AEEA-γGlu-C20 diacid])HQ[Aib]DFVE[4Pal]LLAQGPSSGAPPPS-NH2) the Ki (human GLP-1R) was 325 nM, the Ki (human GIPR) was 0.0584 nM and the Ki (human GcgR) was > 958 nM.
`CC[C@H](C)[C@H](NC(=O)[C@H](CCCCN)NC(=O)[C@H](CC(=O)O)NC(=O)[C@H](CC(C)C)NC(=O)[C@](C)(CC(C)C)NC(=O)[C@@H](NC(=O)[C@H](CO)NC(=O)[C@H](Cc1ccc(O)cc1)NC(=O)[C@H](CC(=O)O)NC(=O)[C@H](CO)NC(=O)[C@@H](NC(=O)[C@H](Cc1ccccc1)NC(=O)[C@@H](NC(=O)CNC(=O)[C@H](CCC(=O)O)NC(=O)C(C)(C)NC(=O)[C@@H](N)Cc1ccc(O)cc1)[C@@H](C)O)[C@@H](C)CC)[C@@H](C)CC)C(=O)N[C@@H](Cc1c[nH]cn1)C(=O)N[C@@H](CCC(N)=O)C(=O)NC(C)(C)C(=O)N[C@@H](CC(=O)O)C(=O)N[C@@H](Cc1ccccc1)C(=O)N[C@H](C(=O)N[C@@H](CCC(=O)O)C(=O)N[C@@H](Cc1ccncc1)C(=O)N[C@@H](CCCCNC(=O)COCCOCCNC(=O)COCCOCCNC(=O)CC[C@H](NC(=O)CCCCCCCCCCCCCCCCCCC(=O)O)C(=O)O)C(=O)N[C@@H](CC(C)C)C(=O)N[C@@H](CCC(=O)O)C(=O)NCC(=O)NCC(=O)N1CCC[C@H]1C(=O)N[C@@H](CO)C(=O)N[C@@H](CO)C(=O)NCC(=O)N[C@@H](C)C(=O)N1CCC[C@H]1C(=O)N1CCC[C@H]1C(=O)N1CCC[C@H]1C(=O)N[C@@H](CO)C(N)=O)C(C)C` [Example 109] (H-Y[Aib]EGTFISDYSI[αMeL]LDKIHQ[Aib]DFVE[4Pal]K([AEEA-AEEA-γGlu-C20 diacid])LEGGPSSGAPPPS-NH2) was tested, and the Ki (human GLP-1R) was > 908 nM, the Ki (human GIPR) was 0.117 nM and the Ki (human GcgR) was > 960 nM.
`CC[C@H](C)[C@H](NC(=O)[C@H](CCCN)NC(=O)[C@H](CC(=O)O)NC(=O)[C@H](CC(C)C)NC(=O)[C@](C)(CC(C)C)NC(=O)[C@@H](NC(=O)[C@H](CO)NC(=O)[C@H](Cc1ccc(O)cc1)NC(=O)[C@H](CC(=O)O)NC(=O)[C@H](CO)NC(=O)[C@@H](NC(=O)[C@H](Cc1ccccc1)NC(=O)[C@@H](NC(=O)CNC(=O)[C@H](CCC(=O)O)NC(=O)C(C)(C)NC(=O)[C@@H](N)Cc1ccc(O)cc1)[C@@H](C)O)[C@@H](C)CC)[C@@H](C)CC)C(=O)N[C@@H](Cc1c[nH]cn1)C(=O)N[C@@H](CCC(N)=O)C(=O)NC(C)(C)C(=O)N[C@@H](CC(=O)O)C(=O)N[C@@H](Cc1ccccc1)C(=O)N[C@H](C(=O)N[C@@H](CCC(=O)O)C(=O)N[C@@H](Cc1ccc(O)cc1)C(=O)N[C@@H](CCCCNC(=O)COCCOCCNC(=O)COCCOCCNC(=O)CC[C@H](NC(=O)CCCCCCCCCCCCCCCCCCC(=O)O)C(=O)O)C(=O)N[C@@H](CC(C)C)C(=O)N[C@@H](CCC(=O)O)C(=O)NCC(=O)NCC(=O)N1CCC[C@H]1C(=O)N[C@@H](CO)C(=O)N[C@@H](CO)C(=O)NCC(=O)N[C@@H](C)C(=O)N1CCC[C@H]1C(=O)N1CCC[C@H]1C(=O)N1CCC[C@H]1C(=O)N[C@@H](CO)C(N)=O)C(C)C` [Example 6] showed a Ki (human GLP-1R) of 571 nM, a Ki (human GIPR) of 0.104 nM and a Ki (human GcgR) of 453 nM.
Work on `CC[C@H](C)[C@H](NC(=O)[C@H](CO)NC(=O)[C@H](Cc1ccc(O)cc1)NC(=O)[C@H](CC(=O)O)NC(=O)[C@H](CO)NC(=O)[C@@H](NC(=O)[C@H](Cc1ccccc1)NC(=O)[C@@H](NC(=O)CNC(=O)[C@H](CCC(=O)O)NC(=O)[C@@H](C)NC(=O)[C@@H](N)Cc1ccc(O)cc1)[C@@H](C)O)[C@@H](C)CC)C(=O)N[C@@H](CC(C)C)C(=O)N[C@@H](CC(C)C)C(=O)N[C@@H](CC(=O)O)C(=O)N[C@@H](CCCCN)C(=O)N[C@@H](CCCCNC(=O)COCCOCCNC(=O)COCCOCCNC(=O)CC[C@H](NC(=O)CCCCCCCCCCCCCCCCC(=O)O)C(=O)O)C(=O)N[C@@H](C)C(=O)N[C@@H](CCC(N)=O)C(=O)NC(C)(C)C(=O)N[C@@H](CCC(=O)O)C(=O)N[C@@H](Cc1ccccc1)C(=O)N[C@H](C(=O)N[C@@H](CCC(=O)O)C(=O)N[C@@H](Cc1c[nH]c2ccccc12)C(=O)N[C@@H](CC(C)C)C(=O)N[C@@H](CC(C)C)C(=O)N[C@@H](C)C(=O)NCC(=O)NCC(=O)N1CCC[C@H]1C(=O)N[C@@H](CO)C(=O)N[C@@H](CO)C(=O)NCC(=O)N[C@@H](C)C(=O)N1CCC[C@H]1C(=O)N1CCC[C@H]1C(=O)N1CCC[C@H]1C(=O)N[C@@H](CO)C(N)=O)C(C)C` [Example 29] (H-Y[dA]EGTFISDYSILLDKK([AEEA-AEEA-γGlu-C18 diacid])AQ[Aib]EFVEWLLAGGPSSGAPPPS-NH2) yielded a Ki (human GLP-1R) of 22.7 nM, a Ki (human GIPR) of 0.0569 nM and a Ki (human GcgR) of 133 nM.

Source: patent publication US12723063B2, “GIPR-agonist compounds” (Eli Lilly and Company, priority 2019, dated 2026)
